# Values quoted from earlier work, collected in patent US20070243232A1, “Method to treat and prevent asthma attacks using throat lozenges and orally-retained liquids containing magnesium” (priority 2006, published 2007).
# Conditions: injections in the 200 mg range
compound,measurement,value
O=S(=O)([O-])[O-].[Mg+2] [magnesium sulfate],efficacy in treating asthma and effecting a rescue,modestly effective
